Like-named read-outs stand apart in the source and are kept apart here.
Columns and labels:
[1] = tested on: thyroid cancer cells TPC-1; test: MTT antiproliferative assay; assay type: cell-based; details: MTT assay, 48 h, average with SD (n = 3, duplicate), read-out: IC50 (μM), antiproliferative activity against thyroid cancer cells TPC-1
Protocol: Thyroid cancer cells TCP-1 were provided by Wuhan Servicebio Co., Ltd. TCP-1 cells are cultured in RPMI-1640 medium supplemented with 10% foetal bovine serum (FBS), 100 U/mL penicillin, and 0.1 mg/mL streptomycin. All cells are maintained in a humidified incubator at 37 °C with 5% CO2.
The TCP-1 cell line is seeded into a 96-well plate and incubated under conditions of 37 °C and 5% CO2. After the cells adhere, different concentrations of compounds are added and the incubation continues for 48 h under the same conditions. Subsequently, MTT reagent is added to the medium and the incubation is continued for an additional 4 h at 37 °C. After the incubation, the medium is aspirated, and 150 μL of DMSO solution is added to dissolve the purple-blue crystals by shaking. The absorbance of the solution is measured at a wavelength of 490 nm. The IC50 value of the compounds is calculated using SPSS software version 20.0.

MCF7 cells = details: cited from earlier work

SMILES | melting point [°C] | IC50 ([1]; Homo sapiens, TPC1, 48 h) [µM] | IC50 [1] [µM] | IC50 (MCF7 cells; read-out: IC50, antiproliferative activity against MCF7 cells) [nM] | IC50 (MCF7 cells; read-out: IC50, proliferative activity of MCF7 cells) [nM]
CNC(=O)c1ccccc1Nc1nc(N/N=C/c2ccc(Cl)cc2)ncc1Cl [14 g, (E)-2-((5-chloro-2–(2-(4-chlorobenzylidene)hydrazineyl)pyrimidin-4-yl)amino)-N-methylbenzamide] | 194.1 to 195.8 | 0.409 ± 0.093 |  |  | 
CNC(=O)c1ccccc1Nc1nc(N/N=C/c2cccc(F)c2)ncc1Cl [14 l, (E)-2-((5-chloro-2–(2-(3-fluorobenzylidene)hydrazineyl)pyrimidin-4-yl)amino)-N-methylbenzamide] | 203.3 to 205.1 | 0.428 ± 0.009 |  |  | 
CNC(=O)c1ccccc1Nc1nc(N/N=C/c2cccc(C(F)(F)F)c2)ncc1Cl [14 m, (E)-2-((5-chloro-2–(2-(3-(trifluoromethyl)benzylidene)hydrazineyl)pyrimidin-4-yl)amino)-N-methylbenzamide] | 207.1 to 209.8 | 0.693 ± 0.017 |  |  | 
CNC(=O)c1ccccc1Nc1nc(N/N=C/c2ccncc2)ncc1Cl [14 u, (E)-2-((5-chloro-2–(2-(pyridin-4-ylmethylene)hydrazineyl)pyrimidin-4-yl)amino)-N-methylbenzamide] | 215.1 to 216.8 | 0.189 ± 0.005 |  |  | 
CNC(=O)c1ccccc1Nc1nc(N/N=C/c2cn(C)c3ccccc23)ncc1Cl [14 y] | 217.2 to 219.1 | 0.425 ± 0.023 |  |  | 
CNC(=O)c1ccccc1Nc1nc(N/N=C/c2ccccc2)ncc1Cl [14a, (E)-2-((2–(2-benzylidenehydrazineyl)-5-chloropyrimidin-4-yl)amino)-N-methylbenzamide] | 199.1 to 202.1 | 0.306 | 0.246 ± 0.038 |  | 
CNC(=O)c1ccccc1Nc1nc(N/N=C/c2ccc3[nH]ccc3c2)ncc1Cl [14aa, (E)-2-((2–(2-((1H-indol-5-yl)methylene)hydrazineyl)-5-chloropyrimidin-4-yl)amino)-N-methylbenzamide] | 218.1 to 219.9 | 0.331 ± 0.012 |  |  | 
CNC(=O)c1ccccc1Nc1nc(N/N=C/c2ccc3cc[nH]c3c2)ncc1Cl [14ab, (E)-2-((2–(2-((1H-indol-6-yl)methylene)hydrazineyl)-5-chloropyrimidin-4-yl)amino)-N-methylbenzamide] | 216.1 to 217.7 | 0.364 ± 0.015 |  |  | 
CNC(=O)c1ccccc1Nc1nc(N/N=C(\C)c2ccc(OC)cc2)ncc1Cl [14ac, (E)-2-((5-chloro-2–(2-(1–(4-methoxyphenyl)ethylidene)hydrazineyl)pyrimidin-4-yl)amino)-N-methylbenzamide] | 216.7 to 217.1 | 0.612 ± 0.016 |  |  | 
CNC(=O)c1ccccc1Nc1nc(N/N=C(\C)c2ccc(F)cc2)ncc1Cl [14ad, (E)-2-((5-chloro-2–(2-(1–(4-fluorophenyl)ethylidene)hydrazineyl)pyrimidin-4-yl)amino)-N-methylbenzamide] | 222.6 to 223.8 | 1.46 ± 0.066 |  |  | 
CNC(=O)c1ccccc1Nc1nc(N/N=C/c2ccc(C)cc2)ncc1Cl [14b, (E)-2-((5-chloro-2–(2-(4-methylbenzylidene)hydrazineyl)pyrimidin-4-yl)amino)-N-methylbenzamide] | 207.1 to 208.1 | 0.296 ± 0.021 |  |  | 
CNC(=O)c1ccccc1Nc1nc(N/N=C/c2ccc(OC)cc2)ncc1Cl [14c, (E)-2-((5-chloro-2–(2-(4-methoxybenzylidene)hydrazineyl)pyrimidin-4-yl)amino)-N-methylbenzamide] | 187.7 to 188.9 | 0.257 ± 0.004 |  |  | 
CNC(=O)c1ccccc1Nc1nc(N/N=C/c2ccc(O)cc2)ncc1Cl [14d, (E)-2-((5-chloro-2–(2-(4-hydroxybenzylidene)hydrazineyl)pyrimidin-4-yl)amino)-N-methylbenzamide] | 187.8 to 189.2 | 0.255 ± 0.025 |  |  | 
CNC(=O)c1ccccc1Nc1nc(N/N=C/c2ccc(C(F)(F)F)cc2)ncc1Cl [14e, (E)-2-((5-chloro-2–(2-(4-(trifluoromethyl)benzylidene)hydrazineyl)pyrimidin-4-yl)amino)-N-methylbenzamide] | 206.6 to 208.8 | 0.193 ± 0.029 |  |  | 
CNC(=O)c1ccccc1Nc1nc(N/N=C/c2ccc(Br)cc2)ncc1Cl [14h, (E)-2-((2–(2-(4-bromobenzylidene)hydrazineyl)-5-chloropyrimidin-4-yl)amino)-N-methylbenzamide] | 192.1 to 193.2 | 0.59 ± 0.024 |  |  | 
CNC(=O)c1ccccc1Nc1nc(N/N=C/c2ccc([N+](=O)[O-])cc2)ncc1Cl [14i, (E)-2-((5-chloro-2–(2-(4-nitrobenzylidene)hydrazineyl)pyrimidin-4-yl)amino)-N-methylbenzamide] | 201.7 to 202.8 | 0.157 ± 0.008 |  |  | 

SMILES | melting point [°C] | IC50 ([1]; Homo sapiens, TPC1, 48 h) [µM] | IC50 [1] [µM] | IC50 (MCF7 cells; read-out: IC50, antiproliferative activity against MCF7 cells) [nM] | IC50 (MCF7 cells; read-out: IC50, proliferative activity of MCF7 cells) [nM]
CNC(=O)c1ccccc1Nc1nc(N/N=C/c2ccc(C#N)cc2)ncc1Cl [14j, (E)-2-((5-chloro-2–(2-(4-cyanobenzylidene)hydrazineyl)pyrimidin-4-yl)amino)-N-methylbenzamide] | 200.7 to 202.1 | 0.126 ± 0.011 |  |  | 
CNC(=O)c1ccccc1Nc1nc(N/N=C/c2cccc(OC)c2)ncc1Cl [14k, (E)-2-((5-chloro-2–(2-(3-methoxybenzylidene)hydrazineyl)pyrimidin-4-yl)amino)-N-methylbenzamide] | 199.3 to 200.4 | 0.517 ± 0.031 |  |  | 
CNC(=O)c1ccccc1Nc1nc(N/N=C/c2ccc(OC)cc2OC)ncc1Cl [14n, (E)-2-((5-chloro-2–(2-(2,4-dimethoxybenzylidene)hydrazineyl)pyrimidin-4-yl)amino)-N-methylbenzamide] | 213.1 to 214.7 |  |  |  | 
CNC(=O)c1ccccc1Nc1nc(N/N=C/c2ccc(OC)c(OC)c2)ncc1Cl [14o, (E)-2-((5-chloro-2–(2-(3,4-dimethoxybenzylidene)hydrazineyl)pyrimidin-4-yl)amino)-N-methylbenzamide] | 214.1 to 215.2 | 0.434 ± 0.012 |  |  | 
CNC(=O)c1ccccc1Nc1nc(N/N=C/c2ccc(OC)cc2F)ncc1Cl [14p, (E)-2-((5-chloro-2–(2-(2-fluoro-4-methoxybenzylidene)hydrazineyl)pyrimidin-4-yl)amino)-N-methylbenzamide] | 218.1 to 219.4 | 0.228 ± 0.065 |  |  | 
CNC(=O)c1ccccc1Nc1nc(N/N=C/c2ccc(OC)c(F)c2)ncc1Cl [14q, (E)-2-((5-chloro-2–(2-(3-fluoro-4-methoxybenzylidene)hydrazineyl)pyrimidin-4-yl)amino)-N-methylbenzamide] | 234.1 to 235.7 | 0.386 ± 0.047 |  |  | 
CNC(=O)c1ccccc1Nc1nc(N/N=C/c2ccc(F)cc2F)ncc1Cl [14r, (E)-2-((5-chloro-2–(2-(2,4-difluorobenzylidene)hydrazineyl)pyrimidin-4-yl)amino)-N-methylbenzamide] | 243.2 to 245.1 | 0.122 ± 0.032 |  |  | 
CNC(=O)c1ccccc1Nc1nc(N/N=C/c2ccccn2)ncc1Cl [14s, (E)-2-((5-chloro-2–(2-(pyridin-2-ylmethylene)hydrazineyl)pyrimidin-4-yl)amino)-N-methylbenzamide] | 217.1 to 218.2 | 0.272 ± 0.016 |  |  | 
CNC(=O)c1ccccc1Nc1nc(N/N=C/c2cccnc2)ncc1Cl [14t, (E)-2-((5-chloro-2–(2-(pyridin-3-ylmethylene)hydrazineyl)pyrimidin-4-yl)amino)-N-methylbenzamide] | 217.1 to 218.1 | 0.243 ± 0.001 |  |  | 
CNC(=O)c1ccccc1Nc1nc(N/N=C/c2cccs2)ncc1Cl [14v, (E)-2-((5-chloro-2–(2-(thiophen-2-ylmethylene)hydrazineyl)pyrimidin-4-yl)amino)-N-methylbenzamide] | 214.6 to 216.1 | 0.153 ± 0.005 |  |  | 
CNC(=O)c1ccccc1Nc1nc(N/N=C/c2ccc3cccnc3c2)ncc1Cl [14w, (E)-2-((5-chloro-2–(2-(quinolin-7-ylmethylene)hydrazineyl)pyrimidin-4-yl)amino)-N-methylbenzamide] | 241.7 to 242.1 | 0.413 ± 0.015 |  |  | 
CNC(=O)c1ccccc1Nc1nc(N/N=C/c2c[nH]c3ccccc23)ncc1Cl [14x, (E)-2-((2–(2-((1H-indol-3-yl)methylene)hydrazineyl)-5-chloropyrimidin-4-yl)amino)-N-methylbenzamide] | 203.3 to 204.8 | 0.357 ± 0.01 |  |  | 
CNC(=O)c1ccccc1Nc1nc(N/N=C/c2c[nH]c3ccc(OC)cc23)ncc1Cl [14z, (E)-2-((5-chloro-2–(2-((5-methoxy-1H-indol-3-yl)methylene) hydrazineyl)pyrimidin-4-yl)amino)-N-methylbenzamide] | 217.1 to 218.2 | 0.624 ± 0.044 |  |  | 
CNC(=O)c1ccccc1Nc1nc(Nc2ccc(N3CCOCC3)cc2OC)ncc1Cl [TAE-226, reference compound] |  | 1.08 ± 0.023 |  |  | 
C/C(=N\N=c1/[nH]c2cc(F)c(F)cc2n1C)c1ncccn1 [compound 8] |  |  |  | 3.3 | 
Cn1c2nc(N/N=C/c3cccc(Br)c3)nc(=O)c-2cc2ccccc21 [compound 9] |  |  |  |  | 0.1
